Laboratory results reported in publication PMC10502144, “Anti-methicillin-resistant Staphylococcus aureus activity and safety evaluation of 14-O-[(5-ethoxycarbonyl-4,6-dimethylpyrimidine-2-yl) thioacetyl] mutilin (EDT)” (Scientific Reports, 2023).
Like-named read-outs stand apart in the source and are kept apart here. Marks after values point to notes of the source that are not given here.

What was measured:
[1] = system: Salmonella Typhimurium TA1535
Procedure: (§1) Before the test, Salmonella Typhimurium (S. Typhimurium) TA97a, TA98, TA100, TA102, TA1535 and Escherichia coli WP2uvrA pKM101 (pKM101) were first checked for their genetic integrity, including biotin dependence, rfa marker (crystal violet), biotin, histidine dependence and presence of the plasmid pKM101 (ampicillin resistance) or pAQ1 (tetracycline resistance). […] The maximum concentration of EDT was also screened using a preliminary experiment.
(§2) DMSO (0.1 mL) was directly incorporated into 1.9 mL melted top agar as the vehicle control. […] Each strain (0.1 mL, 6–7 log10 CFU/mL) was added into 2 mL of top agar in which comprised 0.5 mL S9 (10%), serial concentrations of EDT (2000, 400, 80, 16 and 3.2 μg/plate), DMSO or control chemicals for testing with the S9. For testing without S9, 0.5 mL phosphate buffer saline (PBS, pH 7.4) replaced the S9 mix. Then, the obtained top agar was melted, poured onto the surface of […] and swirled to distribute the top agar to all surfaces of medium, followed by incubation at 37 °C for 48 h. The resultant colonies were counted manually as the number of revertant colonies per plate. The experiments were performed in triplicate and the results were expressed as the average ± SD.

[2] = system: Escherichia coli WP2uvrA pKM101; assay: Ames test, pKM101
Procedure: as §1, §2

[3] = system: Salmonella Typhimurium TA100; assay: Ames test, TA100; format: cell-based; conditions: TA100, positive control 1μL/plate, −S9
Procedure: as §1, §2

[4] = system: Salmonella Typhimurium TA102; assay: Ames test, TA102; conditions: TA102, positive control 50 μg/plate, −S9
Procedure: as §1, §2

[5] = system: Salmonella Typhimurium TA97a; assay: Ames test, TA97a; conditions: positive control 50 μg/plate, −S9
Procedure: as §1, §2

[6] = system: Salmonella Typhimurium TA98; assay: Ames test, TA98; conditions: TA98, positive control 50 μg/plate, −S9
Procedure: as §1, §2

With `[N-]=[N+]=[N-].[Na+]` [sodium azide, reference compound] as the molecule, how does the “number of revertant colonies per plate” value ([1]; TA1535, positive control 1.5 μg/plate, −S9) read?
The value was 534.33 ± 38.67^e.

How did the “number of revertant colonies per plate” value [2] turn out when methyl sulfonate [reference compound] was run?
The value was 644.00 ± 38.00^c.

What about the “number of revertant colonies per plate” value [3] of the same molecule?
The value was 1017.33 ± 39.67^c.

Which “number of revertant colonies per plate” value ([1]; TA1535, positive control 10 μg/plate, +S9) does the source give for `Nc1ccc2cc3ccccc3cc2c1` [2-aminoanthracene, reference compound] here?
The value was 740.00 ± 44.00^d.

Which results are given for `CN(C)c1ccc(N=NS(=O)(=O)[O-])cc1.[Na+]` [diaxone, reference compound]?
number of revertant colonies per plate [4]: 522.00 ± 45.00^b; number of revertant colonies per plate [5]: 2472.00 ± 94.00^b; number of revertant colonies per plate [6]: 972.00 ± 37.00^b
